Numbered stars: 1 amine (or outer) side, 2 acyl side, 3 side chain; on linkers, the order of the positions; unused ones are H or OH. Square brackets hold non-standard residues; d marks the D form. Side chains are listed from the residue outwards. Peptide text beside a SMILES is read from it. * marks the point of attachment. C18 diacid = O=C(O)CCCCCCCCCCCCCCCCC(=O)*; γGlu = O=C(O)[C@H](CCC(=O)[*:2])N[*:1]; AEEA = NCCOCCOCC(=O)O; Aib = CC(C)(N)C(=O)O
Experiments:
[1] = Pharmacokinetic evaluation in mice; type: in vivo, female C57Bl/6 mice; conditions: female, C57Bl/6, mouse, in vivo
Procedure: Compounds were administered in a suitable buffer system, e.g. PBS buffer solution at pH7.4 or DPBS solution at concentrations of 0.05, 0.1, 0.5 or 1 mg/ml depending on dose, species and administration volume. Female C57Bl/6 mice were dosed 0.25 mg/kg, 0.5 mg/kg or 1 mg/kg intravenously (i.v.) or subcutaneously (s.c.). The mice were sacrificed, and blood samples were collected after 0.08, 0.25, 0.5, 1, 2, 4, 8, 24, 32, and 48 h post i.v. application and 0.25, 0.5, 1, 2, 4, 8, 24, 32, and 48 h post s.c. application, respectively. Plasma samples were analysed after protein precipitation via liquid chromatography mass spectrometry (LC/MS). PK parameters and half-life were calculated using Phoenix-WinNonlin 8.1 using a non-compartmental model and linear trapezoidal interpolation calculation. Pharmacokinetic profiles were determined as described in Methods.

[2] = Pharmacokinetic evaluation in minipigs; type: in vivo; conditions: female, Göttingen, minipig, plasma
Procedure: Compounds were administered in a suitable buffer system, e.g. PBS buffer solution at pH7.4 or DPBS solution at concentrations of 0.05, 0.1, 0.5 or 1 mg/ml depending on dose, species and administration volume.
Female Göttingen minipigs were dosed 0.05 mg/kg intravenously (i.v.) or 0.1 mg/kg subcutaneously (s.c.). Blood samples were collected at 0 h and after 0.083, 0.25, 0.5, 1, 2, 4, 8, 24, 32, 48, 56, 72, 80, and 96 h post i.v. application and at 0 h and after 0.25, 0.5, 1, 2, 4, 8, 24, 32, 48, 56, 72, 80, and 96 h post s.c. application, respectively. Plasma samples were analysed after protein precipitation via liquid chromatography mass spectrometry (LC/MS). PK parameters and half-life were calculated using Phoenix-WinNonlin 8.1 using a non-compartmental model and linear trapezoidal interpolation calculation.
Pharmacokinetic profiles were determined as described in Methods.

C57Bl/6 mice = experiment: Acute effects after s.c. treatment on blood glucose in an intraperitoneal glucose tolerance test (ipGTT); type: in vivo, male C57Bl/6NCrl mice; conditions: for Blood glucose concentration AUC / Incremental blood glucose concentration AUCi: Example 14 study, mean ± SEM; for Blood glucose concentration AUC: vehicle 24.44; for Incremental blood glucose concentration AUCi: baseline corrected, vehicle 5.22
Source text: Acute Effects after Subcutaneous (s.c.) Treatment on Blood Glucose in an Intraperitoneal (i.p.) Glucose Tolerance Test (ipGTT) in Healthy, Male C57Bl/6 Mice
Healthy, normoglycemic male C57Bl/6NCrl mice were ordered in an age of 9-10 weeks with an approximate body weight (BW) of 24-26 g at Charles River Laboratories Deutschland GmbH, 97633 Sulzfeld, Germany. Mice were shipped grouped housed (N=4 per cage), acclimatized for one week and remained grouped housed throughout the entire study. Mice were housed under vivarium conditions that included a 12 h light/dark cycle (light phase 06:00 AM-06:00 PM), mean room temperature of 22±2° C. and a relative mean humidity of 55±10%. All animals had free access to food (Ssniff R/M-H diet) and water prior to study start. At study start mice were between 10-11 weeks old.
The primary objective of the study was to investigate the compound-induced lowering of the blood glucose excursion and improvement of glucose tolerance in a mouse ipGTT setting and therefore the primary parameters included blood glucose, delta blood glucose (normalized to the time point just prior to the i.p. glucose challenge, t=0 h) and their respective calculated area under curve (AUC) values. The study was performed as an acute, single dosing study with 6 groups and the male animals were randomly divided to groups of 7-8 mice per group. Dose-dependent pharmacodynamic blood glucose lowering efficacy of the GIPR agonist was analyzed with s.c. injections 6 h before the i.p. glucose load in the dose range from 3 up to 100 nmol/kg and compared to the vehicle group as well as the semaglutide positive control at a dose of 10 nmol/kg.
In more detail, mice were fed overnight and on the following morning brought to the lab with food removed but ad libitum access to water. Blood samplings (5 μl) were performed at: −6.5, −0.5, 0, 0.17, 0.5, 1, 1.5, 2 and 3 h before and after the glucose bolus of 1 g glucose per kg BW i.p. given at time point t=0 h. On time point t=0.17 h an additional K-EDTA plasma sample from 60-80 μl blood was taken for plasma insulin analysis. Blood was withdrawn from the tip of the tail. The GIPR agonist and semaglutide were dissolved in 10 mM phosphate buffer pH 7.4 with 2.3% glycerol and 0.01% polysorbat 20 (vehicle) and s.c. treatment was performed −6 h before the glucose load (t=0 h) using an injection volume of 5 ml/kg. The injection solutions were freshly prepared prior to the experiment using sterile filtered vehicle solution. Blood glucose was determined enzymatically (Gluco-quant® Glucose/HK kit on Roche/Hitachi 912). Plasma insulin was determined using a mouse/rat insulin sandwich immunoassay kit from Meso Scale Discovery.
All data were collected using Microsoft Excel. None of the data were collected online. The results are expressed as means±standard error of the mean (SEM). As primary study parameters, blood glucose, baseline (time point t=0 h) subtracted delta blood glucose and their respective calculated area under curve (AUC) values were determined.
The statistical analysis of the ipGTT blood glucose excursion data response following subcutaneous compound or vehicle treatment was performed on the calculated AUC values of blood glucose raw data as well as the calculated AUC values for baseline subtracted delta blood glucose data. In a first step the Levene's test was used to test for equality of variances between groups. […] Where Levene's test was not significant (p>0.05) ANOVA was conducted without prior rank transformation. In a second step a One-way ANOVA analysis for factor treatment followed by Dunnett's multiple comparisons test vs. vehicle group was used to test for statistical differences. All analyses were performed using SAS (version 9.4) under Linux via the interface software EverSt@t V6.1.
Male C57Bl/6NCrl mice were fed overnight and on the following morning brought to the lab with food removed but adlibitum access to water. […]

CC[C@H](C)[C@H](NC(=O)[C@H](CCC(=O)O)NC(=O)[C@H](CCC(=O)O)NC(=O)[C@H](CCCCNC(=O)COCCOCCNC(=O)COCCOCCNC(=O)CC[C@H](NC(=O)CCCCCCCCCCCCCCCCC(=O)O)C(=O)O)NC(=O)C(C)(C)NC(=O)[C@@H](NC(=O)[C@H](CO)NC(=O)[C@H](CC(C)C)NC(=O)[C@H](CC(=O)O)NC(=O)[C@H](CO)NC(=O)[C@@H](NC(=O)[C@H](Cc1ccccc1)NC(=O)[C@@H](NC(=O)CNC(=O)[C@H](CCC(=O)O)NC(=O)C(C)(C)NC(=O)[C@@H](N)Cc1ccc(O)cc1)[C@@H](C)O)[C@@H](C)CC)[C@@H](C)CC)C(=O)N[C@@H](Cc1c[nH]cn1)C(=O)N[C@@H](CCC(N)=O)C(=O)NC(C)(C)C(=O)N[C@@H](CCC(=O)O)C(=O)N[C@@H](Cc1ccccc1)C(=O)N[C@H](C(=O)N[C@@H](CCC(=O)O)C(=O)N[C@@H](Cc1c[nH]c2ccccc12)C(=O)N[C@@H](CC(C)C)C(=O)N[C@@H](CC(C)C)C(=O)N[C@@H](C)C(=O)N[C@@H](CCC(N)=O)C(=O)NCC(=O)N1CCC[C@H]1C(=O)N[C@@H](CO)C(=O)N[C@@H](CO)C(=O)NCC(=O)N[C@@H](C)C(=O)N1CCC[C@H]1C(=O)N1CCC[C@H]1C(=O)N1CCC[C@H]1C(=O)N[C@@H](CO)C(N)=O)[C@@H](C)CC [SEQ ID NO: 19, H2N-Y-Aib-E-G-T-F-I-S-D-L-S-I-Aib-K[{AEEA}2-gGlu-C18OH]-E-E-I-H-Q-Aib-E-F-I-E-W-L-L-A-Q-G-P-S-S-G-A-P-P-P-S-NH2] (H-Y[Aib]EGTFISDLSI[Aib]K([AEEA-AEEA-γGlu-C18 diacid])EEIHQ[Aib]EFIEWLLAQGPSSGAPPPS-NH2)
AUC(0-t) ([1]; iv, 0.25 mg/kg): 20800 ng·h/mL
Cmax ([1]; iv, 0.25 mg/kg): 3750 ng/mL
clearance ([1]; iv, 0.25 mg/kg): 0.197 mL/min/kg
half-life ([1]; iv, 0.25 mg/kg): 521 min
AUC(0-t) ([1]; sc, 0.5 mg/kg): 41100 ng·h/mL
Cmax ([1]; sc, 0.5 mg/kg): 2420 ng/mL
F ([1]; sc, 0.5 mg/kg): 101%
half-life ([1]; sc, 0.5 mg/kg): 618 min
AUC(0-t) ([2]; iv, 0.05 mg/kg i.v.): 50500 ng·h/mL
Cmax ([2]; iv, 0.05 mg/kg i.v.): 1980 ng/mL
clearance ([2]; iv, 0.05 mg/kg i.v.): 15.4 mL/day/kg
half-life ([2]; iv, 0.05 mg/kg i.v.): 2.67 days
AUC(0-t) ([2]; sc, 0.1 mg/kg s.c.): 56800 ng·h/mL
Cmax ([2]; sc, 0.1 mg/kg s.c.): 723 ng/mL
bioavailability ([2]; sc, 0.1 mg/kg s.c.): 56%

CC[C@H](C)[C@H](NC(=O)[C@H](Cc1ccccc1)NC(=O)[C@H](CCC(=O)O)NC(=O)[C@H](CCC(=O)O)NC(=O)[C@H](CCC(N)=O)NC(=O)[C@H](Cc1c[nH]cn1)NC(=O)[C@@H](NC(=O)[C@H](CCCNC(=N)N)NC(=O)[C@H](CC(=O)O)NC(=O)[C@H](CCCCNC(=O)COCCOCCNC(=O)COCCOCCNC(=O)CC[C@H](NC(=O)CCCCCCCCCCCCCCCCC(=O)O)C(=O)O)NC(=O)C(C)(C)NC(=O)[C@@H](NC(=O)[C@H](CO)NC(=O)[C@H](CC(C)C)NC(=O)[C@H](CC(=O)O)NC(=O)[C@H](CO)NC(=O)[C@@H](NC(=O)[C@H](Cc1ccccc1)NC(=O)[C@@H](NC(=O)CNC(=O)[C@H](CCC(=O)O)NC(=O)C(C)(C)NC(=O)[C@@H](N)Cc1ccc(O)cc1)[C@@H](C)O)[C@@H](C)CC)[C@@H](C)CC)[C@@H](C)CC)C(=O)N[C@@H](CCC(N)=O)C(=O)N[C@@H](Cc1c[nH]c2ccccc12)C(=O)N[C@@H](CC(C)C)C(=O)N[C@@H](CC(C)C)C(=O)N[C@@H](C)C(=O)N[C@@H](CCC(N)=O)C(=O)NCC(=O)N1CCC[C@H]1C(=O)N[C@@H](CO)C(=O)N[C@@H](CO)C(=O)NCC(=O)N[C@@H](C)C(=O)N1CCC[C@H]1C(=O)N1CCC[C@H]1C(=O)N1CCC[C@H]1C(=O)N[C@@H](CO)C(N)=O [SEQ ID NO: 35, H2N-Y-Aib-E-G-T-F-I-S-D-L-S-I-Aib-K[{AEEA}2-gGlu-C18OH]-DRIHQEEFIQWLLAQGPSSGAPPPS-NH2] (H-Y[Aib]EGTFISDLSI[Aib]K([AEEA-AEEA-γGlu-C18 diacid])DRIHQEEFIQWLLAQGPSSGAPPPS-NH2)
AUC(0-t) ([1]; iv, 0.25 mg/kg): 12800 ng·h/mL
Cmax ([1]; iv, 0.25 mg/kg): 1850 ng/mL
clearance ([1]; iv, 0.25 mg/kg): 0.325 mL/min/kg
half-life ([1]; iv, 0.25 mg/kg): 371 min
AUC(0-t) ([1]; sc, 0.5 mg/kg): 21800 ng·h/mL
Cmax ([1]; sc, 0.5 mg/kg): 1400 ng/mL
bioavailability ([1]; sc, 0.5 mg/kg): 86%
half-life ([1]; sc, 0.5 mg/kg): 418 min
Blood glucose concentration AUC (C57Bl/6 mice; 3 nmol/kg s.c. 6 h before i.p. glucose): +24.41 ± 0.743 mmol/L* 0-2 h
Incremental blood glucose concentration AUCi (C57Bl/6 mice; 3 nmol/kg s.c.): +5.57 ± 0.454 mmol/L* 0-2 h
Blood glucose concentration AUC (C57Bl/6 mice; 10 nmol/kg s.c. 6 h before i.p. glucose): +20.67 ± 0.516 mmol/L* 0-2 h
Incremental blood glucose concentration AUCi (C57Bl/6 mice; 10 nmol/kg s.c.): +5.05 ± 0.432 mmol/L* 0-2 h
Blood glucose concentration AUC (C57Bl/6 mice; 30 nmol/kg s.c. 6 h before i.p. glucose): +18.45 ± 0.308 mmol/L* 0-2 h
Incremental blood glucose concentration AUCi (C57Bl/6 mice; 30 nmol/kg s.c.): +3.03 ± 0.225 mmol/L* 0-2 h
Blood glucose concentration AUC (C57Bl/6 mice; 100 nmol/kg s.c. 6 h before i.p. glucose): +15.17 ± 0.452 mmol/L* 0-2 h
Incremental blood glucose concentration AUCi (C57Bl/6 mice; 100 nmol/kg s.c.): +1.76 ± 0.222 mmol/L* 0-2 h
minimal effective dose for improvement of i.p. glucose tolerance (C57Bl/6 mice; single s.c. dose, C57Bl/6NCrl mice, vs. vehicle): 10 to 30 nmol/kg

From patent US20240360194A1, “New Peptides as Potent and Selective GIP Receptor Agonists” (Sanofi, priority 2021, published 2024)
